Our source for the inhibition values is patent publication US20240287052A1, “NOVEL OXAZOLE DERIVATIVE AND PHARMACEUTICAL COMPOSITION FOR PREVENTING OR TREATING ALLERGIC DISEASES COMPRISING THE SAME” (AZCURIS CO., LTD., priority 2021, published 2024).

Molecules are shown by their SMILES.

Assay [1] relates to IL-6 secretion in the human mast cell line HMC 1.1. The assay is described as follows: IL-6 production inhibition assay (IL-33 stimulated HMC 1.1 cells, IL-6 ELISA). It counts as cell-based. The note with it: 24 hours; for inhibition at 1 µM: 1 μM compound, read-out: Inhibition of hIL-6 production (%) 1 μM; for inhibition at 10 µM: 10 μM compound, read-out: Inhibition of hIL-6 production (%) 10 μM. On the procedure: Human mast cell line HMC 1.1 cells were cultured in medium (Iscove's Modified Dulbecco's Medium, IMDM, HyClone) supplemented with […] fetal bovine serum (FBS, HyClone) and 1% antibiotics and maintained at 37° C. with 5% CO2.
HMC 1.1 cells, which are non-adherent cells, were cultured in 0.5 mL of culture medium containing 200 nM of IL-33 wild type human recombinant protein after centrifugation of cells in culture flasks filled to […] capacity and incubated for 24 hours with […], 10 μM, 25 μM, 30 μM or 50 μM of Example compound.
Medium was harvested by centrifugation (2,000×g, 5 min) and stored at −80° C. until ELISA assay.
Experiments were performed according to the protocol using the Human IL-6 ELISA kit (abCam).
The average of the three values obtained in triplicate was calculated and the amount of IL-6 secretion was measured using a standard curve. The measured IL-6 secretion was converted to 100% based on the vehicle treatment sample value to obtain the vehicle %.

The next assay has as its target T1, IL33 and ST2 binding (Homo sapiens, UniProt O95760).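 Further: plate ELISA with coated Flag-tagged human IL-33 and His-tagged human ST2, bound ST2 detected by anti-His HRP and TMB absorbance at 450 nm, 2 h compound incubation.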
T1 sequence (O95760 112-270 limits assumed): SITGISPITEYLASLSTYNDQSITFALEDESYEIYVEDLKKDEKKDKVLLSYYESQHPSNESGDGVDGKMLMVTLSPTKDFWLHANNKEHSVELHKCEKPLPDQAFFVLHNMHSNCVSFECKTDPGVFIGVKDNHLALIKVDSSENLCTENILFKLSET
The note with it: 30 µM.

Experimental for IL33 and ST2 binding: 100 nM of Flag tagged IL-33 human recombinant protein was prepared in 1× coating buffer (Biolegend) and placed in a 96 well microplate (Coming) using a Multichannel pipette (Gilson) and coated for at least 12 hours at 4° C.
After washing three times with PBST (1×PBS (Welgene), 1% Tween 20 (sigma)), it was reacted with 1% BSA (Bovogen) blocking buffer for 1 hour at room temperature.
Samples containing 200 nM of His-tagged ST2 human recombinant protein and 60 μM or 200 μM Example synthetic compounds were prepared, added in equal volumes, and reacted for at least 2 hours at room temperature.
After washing three times with PBST (1×PBS (Welgene), 1% Tween 20 (sigma)), anti-His HRP (BioLegend) antibody was diluted 5000:1 and reacted for at least 1 hour at room temperature.
After washing three times with PBST (1×PBS (Welgene), 1% Tween 20 (sigma)), TMB substrate solution (Thermo) was added and reacted for more than 5 minutes. The reaction was stopped by adding 1 N HCl (Samchun) and the absorbance value was obtained at 450 nm after orbital shaking for 5 s with a Microplate reader (Tecan, Spark®).
The results derived from the program linked to the microplate reader were analyzed using an Excel program. IL33-ST2 binding rate (binding %) was calculated by averaging the three values obtained in triplicate, subtracting the positive control value, and converting the negative control value to 100%. The inhibition % value of each compound was obtained by subtracting the IL33-ST2 binding % from 100%, and the error range of triplicate was also obtained and reflected in the inhibition graph of the compound.

Regarding `CCCNC(=O)c1nc(-c2ccc(C(F)(F)F)cc2)oc1-c1cccc(O)c1` [Compound 319, 5-(3-Hydroxyphenyl)-N-propyl-2-(4-(trifluoromethyl)phenyl)oxazole-4-carboxamide], in assay [1], the inhibition at 1 µM amounted to 75% and the inhibition at 10 µM is 80%.
Consider `CCNC(=O)c1nc(-c2ccc(OC)cc2)oc1-c1ccccc1` [Compound 312, N-Ethyl-2-(4-methoxyphenyl)-5-phenyloxazole-4-carboxamide], for which, in assay [1], the inhibition at 1 µM was 66% and the inhibition at 10 µM was found to be 81%. The inhibition on IL33 and ST2 binding was -47%.
Turning to `CCNC(=O)c1nc(-c2ccc(C(F)(F)F)cc2)oc1-c1ccc(OC)c(OC)c1` [Compound 302, 5-(3,4-dimethoxyphenyl)-N-ethyl-2-(4-(Trifluoromethyl)phenyl)oxazole-4-carboxamide], in assay [1], the inhibition at 1 µM was -34% and the inhibition at 10 µM is -29%.
As to `CC(=O)N1CCN(CCNC(=O)c2nc(-c3ccccc3C(F)(F)F)oc2-c2ccccc2)CC1` [Compound 128, N-(2-(4-acetylpiperazin-1-yl)ethyl)-5-phenyl-2-(2-(trifluoromethyl)phenyl)oxazole-4-carboxamide], in assay [1], the inhibition at 1 µM was determined as 66% and the inhibition at 10 µM came to 80%. For the same compound, the inhibition at IL33 and ST2 binding is -28%.
On to `CCNC(=O)c1nc(-c2ccc(C(F)(F)F)cc2)oc1-c1ccc(O)c(O)c1` [Compound 321, 5-(3,4-Dihydroxyphenyl)-N-ethyl-2-(4-(trifluoromethyl)phenyl)oxazole-4-carboxamide], for which, in assay [1], the inhibition at 1 µM worked out at 50% and the inhibition at 10 µM was determined as 72%.
With `CCNC(=O)c1nc(-c2ccc(C(F)(F)F)cc2)oc1-c1cc(OC)c(OC)c(OC)c1` [Compound 304, N-Ethyl-2-(4-(trifluoromethyl)phenyl)-5-(3,4,5-trimethoxyphenyl)oxazole-4-carboxamide], in assay [1], the inhibition at 1 µM was -47% and the inhibition at 10 µM was -74%.
Consider `CCNC(=O)c1nc(-c2ccc(C(F)(F)F)cc2)oc1-c1ccccc1OC` [Compound 296, N-Ethyl-5-(2-methoxyphenyl)-2-(4-(trifluoromethyl)phenyl)oxazole-4-carboxamide], for which, in assay [1], the inhibition at 1 µM was 0% and the inhibition at 10 µM amounted to 32%.
As for `CCCNC(=O)c1nc(-c2ccc(C(F)(F)F)cc2)oc1-c1cccc(OC)c1` [Compound 299, 5-(3-Methoxyphenyl)-N-propyl-2-(4-(Trifluoromethyl)phenyl)oxazole-4-carboxamide], in assay [1], the inhibition at 1 µM came to 40% and the inhibition at 10 µM turned out to be 57%.
For the compound `CCNC(=O)c1nc(-c2cccc(Cl)c2)oc1-c1ccccc1` [Compound 314, 2-(3-Chlorophenyl)-N-ethyl-5-phenyloxazole-4-carboxamide], in assay [1], the inhibition at 1 µM came to 10% and the inhibition at 10 µM was 81%. In addition, at IL33 and ST2 binding, the inhibition is -18%.
With `CCCNC(=O)c1nc(-c2ccc(C(F)(F)F)cc2)oc1-c1ccccc1OC` [Compound 297, 5-(2-Methoxyphenyl)-N-propyl-2-(4-(trifluoromethyl)phenyl)oxazole-4-carboxamide], in assay [1], the inhibition at 1 µM was found to be 3% and the inhibition at 10 µM was found to be 34%.
Consider `CCNC(=O)c1nc(-c2ccc(C(F)(F)F)cc2)oc1-c1ccccc1OC(F)(F)F` [Compound 305, N-Ethyl-5-(2-(trifluoromethoxy)phenyl)-2-(4-(trifluoromethyl)phenyl)oxazole-4-carboxamide], for which, in assay [1], the inhibition at 1 µM was -4% and the inhibition at 10 µM stood at 26%. In addition, at IL33 and ST2 binding, the inhibition is -17%.
For `CCNC(=O)c1nc(-c2ccc(C#N)cc2)oc1-c1ccccc1` [Compound 315, 2-(4-cyanophenyl)-N-ethyl-5-phenyloxazole-4-carboxamide], in assay [1], the inhibition at 1 µM amounted to 47% and the inhibition at 10 µM amounted to 61%. For the same compound, the inhibition at IL33 and ST2 binding is -4%.
Take `CCCNC(=O)c1nc(-c2ccc(C(F)(F)F)cc2)oc1-c1ccncc1` [Compound 310, N-Propyl-5-(pyridin-4-yl)-2-(4-(trifluoromethyl)phenyl)oxazole-4-carboxamide]: in assay [1], the inhibition at 1 µM amounted to 49% and the inhibition at 10 µM worked out at 58%.
As to `CCOC(=O)c1nc(-c2ccc(C(F)(F)F)cc2)oc1-c1cc(OC)c(OC)c(OC)c1` [Compound 49, Ethyl 2-(4-(trifluoromethyl)phenyl)-5-(3,4,5-trimethoxyphenyl)oxazole-4-carboxylate], in assay [1], the inhibition at 1 µM was -2% and the inhibition at 10 µM worked out at 16%. Besides, the inhibition at IL33 and ST2 binding is -65%.
With `CCCNC(=O)c1nc(-c2ccc(C(F)(F)F)cc2)oc1-c1ccc(OC)cc1` [Compound 301, 5-(4-Methoxyphenyl)-N-propyl-2-(4-(Trifluoromethyl)phenyl)oxazole-4-carboxamide], in assay [1], the inhibition at 1 µM came to 21% and the inhibition at 10 µM is 31%.
Turning to `CCCNC(=O)c1nc(-c2ccc(C(F)(F)F)cc2)oc1-c1ccccc1` [Compound 295, 5-Phenyl-N-propyl-2-(4-(trifluoromethyl)phenyl)oxazole-4-carboxamide], in assay [1], the inhibition at 1 µM was 53% and the inhibition at 10 µM amounted to 57%.
Take `CCOC(=O)c1nc(-c2ccc(C(F)(F)F)cc2)oc1-c1ccc(OC)c(OC)c1` [Compound 47, Ethyl 5-(3,4-dimethoxyphenyl)-2-(4-(trifluoromethyl)phenyl)oxazole-4-carboxylate]: in assay [1], the inhibition at 1 µM was determined as 36% and the inhibition at 10 µM is 26%. Further, the inhibition on IL33 and ST2 binding is -57%.
Consider `CCNC(=O)c1nc(-c2ccc(C(F)(F)F)cc2)oc1-c1cc(OC)cc(OC)c1` [Compound 303, 5-(3,5-Dimethoxyphenyl)-N-ethyl-2-(4-(trifluoromethyl)phenyl)oxazole-4-carboxamide], for which, in assay [1], the inhibition at 1 µM came out at 26% and the inhibition at 10 µM amounted to 26%.
As to `CCOC(=O)c1nc(-c2ccc(C(F)(F)F)cc2)oc1-c1cc(OC)cc(OC)c1` [Compound 48, Ethyl 5-(3,5-dimethoxyphenyl)-2-(4-(trifluoromethyl)phenyl)oxazole-4-carboxylate], in assay [1], the inhibition at 1 µM amounted to 22% and the inhibition at 10 µM worked out at 39%. At IL33 and ST2 binding, the inhibition amounted to 87%.
On to `CCNC(=O)c1nc(-c2cc(F)cc(F)c2)oc1-c1ccccc1` [Compound 313, 2-(3,5-Difluorophenyl)-N-ethyl-5-phenyloxazole-4-carboxamide], for which, in assay [1], the inhibition at 1 µM was -7% and the inhibition at 10 µM was found to be 27%. The inhibition on IL33 and ST2 binding is -29%.
On to `CCNC(=O)c1nc(-c2ccc(C(F)(F)F)cc2)oc1-c1cccc(O)c1` [Compound 318, N-Ethyl-5-(3-hydroxyphenyl)-2-(4-(trifluoromethyl)phenyl)oxazole-4-carboxamide], for which, in assay [1], the inhibition at 1 µM was found to be 70% and the inhibition at 10 µM came out at 79%.
As for `CCNC(=O)c1nc(-c2ccc(C(F)(F)F)cc2)oc1-c1ccc(OC)cc1` [Compound 300, N-Ethyl-5-(4-methoxyphenyl)-2-(4-(trifluoromethyl)phenyl)oxazole-4-carboxamide], in assay [1], the inhibition at 1 µM worked out at 37% and the inhibition at 10 µM was found to be 47%.
`CCNC(=O)c1nc(-c2ccc(C(F)(F)F)cc2)oc1-c1ccncc1` [Compound 309, N-Ethyl-5-(pyridin-4-yl)-2-(4-(trifluoromethyl)phenyl)oxazole-4-carboxamide]: in assay [1], the inhibition at 1 µM came to 56% and the inhibition at 10 µM was found to be 51%.

Usually inhibition stands for the drop in the measured response relative to a control, in per cent.
